Results: publication PMC3119473 (PLoS ONE, 2011)
“Also recorded” adds a separate entry of the source. Each block holds one molecule with its values, some of them ahead of it. Square brackets hold non-standard residues; d marks the D form. Ends that are not written are not given here. fluorescein = fluorescein, N-terminal label; Lys(Me3) = C[N+](C)(C)CCCC[C@H](N)C(=O)O; Lys(Me2) = CN(C)CCCC[C@H](N)C(=O)O

Assays:
[1] = biological target: T1, PWWP domain of human HDGF2 (residues 1–93) (Homo sapiens, UniProt Q7Z4V5); test: Fluorescence polarization binding of histone peptides to HDGF2 PWWP domain; settings: N-terminally fluorescein-labeled peptide 40 nM, PWWP domain titrated, 20 mM PIPES pH 6.5, 50 mM NaCl, 0.01% Tween-20, Very weak = binding too weak to be fitted reliably
T1 construct: HDGF2 (residues 1–93); His-tag (cleaved yes); made in house; host or cells: Escherichia coli BL21 (DE3)-V2R-pRARE2
T1 sequence (Q7Z4V5 1-93): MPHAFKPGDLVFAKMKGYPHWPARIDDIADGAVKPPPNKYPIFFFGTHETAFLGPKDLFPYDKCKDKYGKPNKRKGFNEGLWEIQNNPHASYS
Experimental: (§1) DNA fragment encoding the PWWP domain of human BRPF1 (residues 1085–1213), BRPF2 (residues 925–1049), BRPF3 (residues 1056–1195), HDGF2 (residues 1–93), DNMT3A (residues 278–427), DNMT3B (residues 206–355), MUM1 (residues 406–539) WHSC1 (residues 208–368) and WHSC1L1 (residues 247–402) were amplified by PCR and sub-cloned into pET28-MHL vector (Genbank accession number: EF456735) and transformed into Escherichia coli BL21 (DE3)-V2R-pRARE2. The cells were grown in Terrific Broth and the protein was over-expressed by addition of 1 mM isopropyl-1-thio-D-galactopyranoside (IPTG) and incubated overnight at 15°C. Harvested cells were resuspended in 50 mM HEPES, pH 7.4, supplemented with 500 mM NaCl, 2 mM β-mercaptoethanol, 5% glycerol, 0.1% CHAPS. The cells were lysed by passing through a microfluidizer (Microfluidics Corporation) at 20,000 psi. After clarification of the crude extract by high-speed centrifugation, the lysate was loaded onto a 5 ml HiTrap chelating column (GE Healthcare), charged with Ni^2+. The column was washed with 10 column volumes of 20 mM HEPES buffer, pH 7.4, containing 500 mM NaCl, 50 mM imidazole and 5% glycerol, the protein was eluted with 20 mM HEPES buffer, pH 7.4, 500 mM NaCl, 250 mM imidazole, 5% glycerol. The protein was dialyzed against buffer containing 20 mM HEPES, pH 7.4, 500 mM NaCl and 5% glyceral. TEV protease was added to combined fractions containing target proteins to remove the His-tag. All the proteins except DNMT3A were further purified to homogeneity by ion-exchange chromatography on Source 30S column (10×10) (GE Healthcare), equilibrated with 20 mM PIPES buffer, pH 6.5, and eluted with linear gradient of NaCl up to 500 mM concentration (20CV). For DNMT3A, Source 30Q column was used for ion exchange chromatography. The ^15N-labeled proteins for NMR titration were purified in the same protocols as native ones except that bacteria were grew in M9 minimal medium containing 1 g/L ^15(NH4)2SO4 as the sole nitrogen source. The labeled proteins were concentrated to 0.15–0.3 mM for NMR titration.
Fluorescence polarization assays were performed in 384-well plates, using the Synergy 2 microplate reader from BioTek as described in [43]. All the peptides were synthesized and purified by Tufts University Core Services (Boston, MA, U.S.A.), with the N-terminus labeled with fluorescein. Binding assays were performed in a 10 µl volume at a constant labeled peptide concentration (40 nM), by titrating the PWWP domains (at concentrations ranging from low to high micromolar) into 20 mM PIPES buffer (pH 6.5), containing 50 mM NaCl, 0.01% Tween-20. The data points were fitted to ligand binding function using Sigma Plot software to determine the K d values.

[2] = biological target: T2, PWWP domain of human BRPF1 (residues 1085–1213) (Homo sapiens, UniProt P55201); test: Fluorescence polarization binding of histone peptides to BRPF1 PWWP domain; settings: N-terminally fluorescein-labeled peptide 40 nM, PWWP domain titrated, 20 mM PIPES pH 6.5, 50 mM NaCl, 0.01% Tween-20, Very weak = binding too weak to be fitted reliably
T2 construct: PWWP domain of human BRPF1 (residues 1085–1213); His-tag (cleaved yes); made in house; host or cells: Escherichia coli BL21 (DE3)-V2R-pRARE2
T2 sequence (P55201 1085-1213): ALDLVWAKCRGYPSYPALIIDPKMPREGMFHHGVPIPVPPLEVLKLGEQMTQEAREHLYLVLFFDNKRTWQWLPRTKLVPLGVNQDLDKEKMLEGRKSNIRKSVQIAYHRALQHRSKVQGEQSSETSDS
Experimental: as §1, with “TEV protease was added to combined fractions containing target proteins to remove the His-tag. All the proteins except DNMT3A were further purified to homogeneity by ion-exchange chromatography on Source 30S column (10×10) (GE Healthcare), equilibrated with 20 mM PIPES buffer, pH 6.5, and eluted with linear gradient of NaCl up to 500 mM concentration (20CV). For DNMT3A, Source 30Q column was used for ion exchange chromatography. The ^15N-labeled proteins for NMR titration were purified in the same protocols as native ones except that bacteria were grew in M9 minimal medium containing 1 g/L ^15(NH4)2SO4 as the sole nitrogen source. The labeled proteins were concentrated to 0.15–0.3 mM for NMR titration.” left out

[3] = biological target: T3, PWWP domain of human BRPF2 (residues 925–1049) (Homo sapiens, UniProt O95696); test: Fluorescence polarization binding of histone peptides to BRPF2 PWWP domain; settings: N-terminally fluorescein-labeled peptide 40 nM, PWWP domain titrated, 20 mM PIPES pH 6.5, 50 mM NaCl, 0.01% Tween-20, Very weak = binding too weak to be fitted reliably
T3 construct: BRPF2 (residues 925–1049); His-tag (cleaved yes); made in house; host or cells: Escherichia coli BL21 (DE3)-V2R-pRARE2
T3 sequence (O95696 925-1049): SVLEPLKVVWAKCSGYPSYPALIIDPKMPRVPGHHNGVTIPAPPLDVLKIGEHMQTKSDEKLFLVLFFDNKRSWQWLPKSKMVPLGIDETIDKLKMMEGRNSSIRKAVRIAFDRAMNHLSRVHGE
Experimental: as §1, with “TEV protease was added to combined fractions containing target proteins to remove the His-tag. All the proteins except DNMT3A were further purified to homogeneity by ion-exchange chromatography on Source 30S column (10×10) (GE Healthcare), equilibrated with 20 mM PIPES buffer, pH 6.5, and eluted with linear gradient of NaCl up to 500 mM concentration (20CV). For DNMT3A, Source 30Q column was used for ion exchange chromatography. The ^15N-labeled proteins for NMR titration were purified in the same protocols as native ones except that bacteria were grew in M9 minimal medium containing 1 g/L ^15(NH4)2SO4 as the sole nitrogen source. The labeled proteins were concentrated to 0.15–0.3 mM for NMR titration.” left out

[4] = biological target: T4, N-terminal PWWP domain of human WHSC1L1 (residues 247–402) (Homo sapiens, UniProt Q9BZ95); test: Fluorescence polarization binding of histone peptides to WHSC1L1 N-terminal PWWP domain; settings: N-terminal PWWP domain only, N-terminally fluorescein-labeled peptide 40 nM, PWWP domain titrated, 20 mM PIPES pH 6.5, 50 mM NaCl, 0.01% Tween-20, Very weak = binding too weak to be fitted reliably
T4 construct: WHSC1L1 (residues 247–402); His-tag (cleaved yes); made in house; host or cells: Escherichia coli BL21 (DE3)-V2R-pRARE2
T4 sequence (Q9BZ95 247-402): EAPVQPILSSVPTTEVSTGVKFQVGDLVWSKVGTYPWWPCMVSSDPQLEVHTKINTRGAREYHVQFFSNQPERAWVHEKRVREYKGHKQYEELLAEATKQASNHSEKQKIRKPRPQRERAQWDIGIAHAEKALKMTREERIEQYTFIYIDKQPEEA
Experimental: DNA fragment encoding the PWWP domain of human BRPF1 (residues 1085–1213), BRPF2 (residues 925–1049), BRPF3 (residues 1056–1195), HDGF2 (residues 1–93), DNMT3A (residues 278–427), DNMT3B (residues 206–355), MUM1 (residues 406–539) WHSC1 (residues 208–368) and WHSC1L1 (residues 247–402) were amplified by PCR and sub-cloned into pET28-MHL vector (Genbank accession number: EF456735) and transformed into Escherichia coli BL21 (DE3)-V2R-pRARE2. The cells were grown in Terrific Broth and the protein was over-expressed by addition of 1 mM isopropyl-1-thio-D-galactopyranoside (IPTG) and incubated overnight at 15°C. Harvested cells were resuspended in 50 mM HEPES, pH 7.4, supplemented with 500 mM NaCl, 2 mM β-mercaptoethanol, 5% glycerol, 0.1% CHAPS. The cells were lysed by passing through a microfluidizer (Microfluidics Corporation) at 20,000 psi. After clarification of the crude extract by high-speed centrifugation, the lysate was loaded onto a 5 ml HiTrap chelating column (GE Healthcare), charged with Ni^2+. The column was washed with 10 column volumes of 20 mM HEPES buffer, pH 7.4, containing 500 mM NaCl, 50 mM imidazole and 5% glycerol, the protein was eluted with 20 mM HEPES buffer, pH 7.4, 500 mM NaCl, 250 mM imidazole, 5% glycerol. […]
Fluorescence polarization assays were performed in 384-well plates, using the Synergy 2 microplate reader from BioTek as described in [43]. […]

[5] = biological target: T5, PWWP domain of human MUM1 (melanoma associated antigen (mutated) 1), residues 406-539 (human, UniProt Q2TAK8 406-539); test: fluorescence polarisation; 384-well plates, 10 µl; N-terminal fluorescein peptide constant at 40 nM, PWWP domain titrated (low to high micromolar); 20 mM PIPES pH 6.5, 50 mM NaCl, 0.01% Tween-20; settings: both partners purified
T5 construct: PWWP domain of human MUM1, residues 406-539; Cloned into pET28-MHL (vector GenBank EF456735); source: E. coli BL21 (DE3)-V2R-pRARE2, purified (Ni2+ chelating column, TEV cleavage, Source 30S ion exchange)
T5 sequence (Q2TAK8 406-539, stated change not applied): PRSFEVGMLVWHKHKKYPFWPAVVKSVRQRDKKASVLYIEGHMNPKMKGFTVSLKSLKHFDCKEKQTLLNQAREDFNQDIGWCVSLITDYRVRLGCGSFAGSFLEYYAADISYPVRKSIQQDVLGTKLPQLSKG

[6] = biological target: T6, PWWP domain of human HDGF2 (Hepatoma-derived growth factor 2), residues 1-93 (human, UniProt Q7Z4V5 1-93); test: as above; settings: both partners purified
T6 construct: PWWP domain of human HDGF2, residues 1-93; Cloned into pET28-MHL (vector GenBank EF456735); also called HGDF2; source: E. coli BL21 (DE3)-V2R-pRARE2, purified (Ni2+ chelating column, TEV cleavage, Source 30S ion exchange)
T6 sequence (Q7Z4V5 1-93): as the sequence (Q7Z4V5 1-93) above

Molecule: CC[C@H](C)[C@H](NC(=O)[C@@H](N)CCC(=O)O)C(=O)N[C@@H](C)C(=O)N[C@@H](CCC(N)=O)C(=O)N[C@@H](CC(=O)O)C(=O)N[C@@H](Cc1ccccc1)C(=O)N[C@@H](CCCC[N+](C)(C)C)C(=O)N[C@H](C(=O)N[C@@H](CC(=O)O)C(=O)N[C@@H](CC(C)C)C(=O)N[C@@H](CCCNC(=N)N)C(=O)N[C@@H](Cc1ccc(O)cc1)C(=O)O)[C@@H](C)O [Peptide H3K79me3]
HDGF2 Kd(mM) [1]: weakly; also recorded: very weak binding affinity

HDGF2 Kd(mM) [1]: Very weak | BRPF1 Kd(mM) [2]: Very weak
Molecule: AKRHRK(me)2VLRDN [Peptide H4K20me2, histone H4 peptide dimethylated at K20; N-terminus fluorescein-labeled in FP assay]

Molecule: CC(C)[C@H](NC(=O)CNC(=O)CNC(=O)[C@@H](NC(=O)[C@H](C)NC(=O)[C@@H]1CCCN1)[C@@H](C)O)C(=O)N[C@@H](CCCCN(C)C)C(=O)N[C@@H](CCCCN)C(=O)N1CCC[C@H]1C(=O)N[C@@H](Cc1c[nH]cn1)C(=O)N[C@@H](CCCNC(=N)N)C(=O)N[C@@H](Cc1ccc(O)cc1)C(=O)O [Peptide H3K36me2]
BRPF2 Kd(mM) [3]: Very weak | WHSC1L1_N Kd (mM) [4]: Very weak

HDGF2 Kd(mM) [1]: Very weak
Molecule: CC[C@H](C)[C@H](NC(=O)[C@@H](N)CCC(=O)O)C(=O)N[C@@H](C)C(=O)N[C@@H](CCC(N)=O)C(=O)N[C@@H](CC(=O)O)C(=O)N[C@@H](Cc1ccccc1)C(=O)N[C@@H](CCCCN(C)C)C(=O)N[C@H](C(=O)N[C@@H](CC(=O)O)C(=O)N[C@@H](CC(C)C)C(=O)N[C@@H](CCCNC(=N)N)C(=O)N[C@@H](Cc1ccc(O)cc1)C(=O)O)[C@@H](C)O [Peptide H3K79me2]

HDGF2 Kd(mM) [1]: weakly; also recorded: Very weak | BRPF1 Kd(mM) [2]: Very weak
Molecule: AKRHRK(me)3VLRDN [Peptide H4K20me3, histone H4 peptide trimethylated at K20; N-terminus fluorescein-labeled in FP assay]

HDGF2 Kd(mM) [1]: weakly; also recorded: Very weak | WHSC1L1_N Kd (mM) [4]: Very weak
Molecule: CC(C)[C@H](NC(=O)CNC(=O)CNC(=O)[C@@H](NC(=O)[C@H](C)NC(=O)[C@@H]1CCCN1)[C@@H](C)O)C(=O)N[C@@H](CCCC[N+](C)(C)C)C(=O)N[C@@H](CCCCN)C(=O)N1CCC[C@H]1C(=O)N[C@@H](Cc1c[nH]cn1)C(=O)N[C@@H](CCCNC(=N)N)C(=O)N[C@@H](Cc1ccc(O)cc1)C(=O)O [Peptide H3K36me3]

Kd [5]: 400 ± 100 µM | Kd [6]: 1000 ± 200 µM
B1: H3K36me2 peptide PATGGVK(me)2KPHRY, N-terminal fluorescein (peptide)
peptide: fluorescein-PATGGV[Lys(Me2)]KPHRY
notes: histone H3, stretch around K36; source: synthetic peptide (Tufts University Core Services)

Kd [5]: 100 ± 70 µM
B2: H3K36me3 peptide PATGGVK(me)3KPHRY, N-terminal fluorescein (peptide)
peptide: fluorescein-PATGGV[Lys(Me3)]KPHRY
notes: as for B1
